What follows are compounds tested against wild type RET (Homo sapiens (Human), UniProt P07949) (assay: RET Wild Type Assay at KM (Caliper electrophoretic mobility shift)). Settings: 25 μM ATP, 25° C., 120 minutes; read-out: Wild-type RET (RET Inhibitory Activity).
Format: biochemical

Sequence of wild type RET (P07949 29-1114): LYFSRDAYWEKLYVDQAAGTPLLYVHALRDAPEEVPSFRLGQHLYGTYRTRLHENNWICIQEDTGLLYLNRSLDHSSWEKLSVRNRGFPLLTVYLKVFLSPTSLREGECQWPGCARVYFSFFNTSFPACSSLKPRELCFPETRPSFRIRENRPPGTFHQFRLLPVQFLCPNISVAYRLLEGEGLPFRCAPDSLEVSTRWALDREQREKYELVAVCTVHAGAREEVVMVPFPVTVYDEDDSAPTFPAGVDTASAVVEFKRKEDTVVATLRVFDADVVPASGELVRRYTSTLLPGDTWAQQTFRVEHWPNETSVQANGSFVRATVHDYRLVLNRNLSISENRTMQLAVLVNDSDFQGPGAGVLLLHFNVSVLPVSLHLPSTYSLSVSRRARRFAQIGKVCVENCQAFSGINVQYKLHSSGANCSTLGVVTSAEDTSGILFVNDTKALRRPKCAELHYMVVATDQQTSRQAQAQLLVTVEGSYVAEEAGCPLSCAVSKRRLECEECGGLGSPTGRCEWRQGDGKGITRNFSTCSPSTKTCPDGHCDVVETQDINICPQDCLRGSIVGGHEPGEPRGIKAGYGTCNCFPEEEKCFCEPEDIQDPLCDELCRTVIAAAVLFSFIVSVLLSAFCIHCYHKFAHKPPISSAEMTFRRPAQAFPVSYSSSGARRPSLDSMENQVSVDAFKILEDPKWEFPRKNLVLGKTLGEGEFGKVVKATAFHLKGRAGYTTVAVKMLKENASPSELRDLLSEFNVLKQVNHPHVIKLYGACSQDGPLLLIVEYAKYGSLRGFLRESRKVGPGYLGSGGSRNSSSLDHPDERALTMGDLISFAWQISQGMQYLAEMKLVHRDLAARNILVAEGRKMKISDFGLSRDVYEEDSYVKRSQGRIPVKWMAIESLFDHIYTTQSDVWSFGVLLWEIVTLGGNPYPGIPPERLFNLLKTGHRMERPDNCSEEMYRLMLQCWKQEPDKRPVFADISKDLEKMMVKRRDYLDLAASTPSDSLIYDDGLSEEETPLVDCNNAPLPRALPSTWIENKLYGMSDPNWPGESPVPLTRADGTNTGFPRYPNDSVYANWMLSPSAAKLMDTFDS

Row | SMILES | IC50 [nM]
1 | Cc1cc(Nc2cc(C)[nH]n2)nc([C@H]2C[C@@H](C(=O)N[C@@H](C)c3ccc(-n4cc(F)cn4)nc3)C2)c1 [Compound 103] | 10 to 100
2 | Cc1cc(Nc2cc(C)[nH]n2)nc([C@H]2C[C@@](C)(C(=O)N[C@@H](C)c3ccc(-n4cc(F)cn4)nc3)C2)n1 [Compound 107, (1S,3R)—N—((S)-1-(6-(4-fluoro-1H-pyrazol-1-yl)pyridin-3-yl)ethyl)-1-methyl-3-(4-methyl-6-((5-methyl-1H-pyrazol-3-yl)amino)pyrimidin-2-yl)cyclobutane-1-carboxamide] | 1.01 to 10
3 | Cc1cc(Nc2cc(C)[nH]n2)nc([C@]2(F)C[C@H](C(=O)N[C@@H](C)c3ccc(-n4cc(F)cn4)nc3)C2)c1 [Compound 113, (1S,3R)-3-fluoro-N—((S)-1-(6-(4-fluoro-1H-pyrazol-1-yl)pyridin-3-yl)ethyl)-3-(4-methyl-6-(5-methyl-1H-pyrazol-3-ylamino)pyridin-2-yl)cyclobutanecarboxamide] | 10 to 100
4 | Cc1cc(Nc2cc(C)[nH]n2)nc([C@]2(F)C[C@@H](C(=O)N[C@@H](C)c3ccc(-n4cc(F)cn4)nc3)C2)c1 [Compound 114] | 1.01 to 10
5 | Cc1cc(Nc2cc(C)[nH]n2)nc([C@]2(O)C[C@@H](C(=O)N(C)[C@@H](C)c3ccc(-n4cc(F)cn4)nc3)C2)c1 [Compound 116] | 1.01 to 10
6 | CO[C@]1(c2cc(C)cc(Nc3cc(C)[nH]n3)n2)C[C@H](C(=O)N[C@@H](C)c2ccc(-n3cc(F)cn3)nc2)C1 [Compound 117, (1S,3R)—N—((S)-1-(6-(4-fluoro-1H-pyrazol-1-yl)pyridin-3-yl)ethyl)-3-methoxy-3-(4-methyl-6-((5-methyl-1H-pyrazol-3-yl)amino)pyridin-2-yl)cyclobutane-1-carboxamide] | < 100
7 | Cc1cc(Nc2cc(C)[nH]n2)nc([C@]2(O)C[C@](C)(C(=O)N[C@@H](C)c3ccc(-n4cc(F)cn4)nc3)C2)c1 [Compound 118] | < 100
8 | CO[C@]1(C(=O)N[C@@H](C)c2cnc(-n3cc(F)cn3)cn2)C[C@H](c2cc(C)nc(Nc3cc(C)[nH]n3)n2)C1 [Compound 124] | < 1
9 | Cc1cc(Nc2cc(C)[nH]n2)nc([C@]2(F)C[C@](C)(C(=O)N[C@@H](C)c3ccc(-n4cc(F)cn4)nc3)C2)c1 [Compound 126] | < 100
10 | CO[C@]1(C(=O)N[C@@H](C)c2ccc(-n3cc(F)cn3)nc2)C[C@](O)(c2cc(C)cc(Nc3cc(C)[nH]n3)n2)C1 [Compound 127] | < 1
11 | CO[C@]1(C(=O)N[C@@H](C)c2ccc(-n3cc(F)cn3)nc2)C[C@@](O)(c2cc(C)cc(Nc3cc(C)[nH]n3)n2)C1 [Compound 128] | < 100
12 | CO[C@]1(C(=O)NCc2cnc(-n3cc(F)cn3)cn2)C[C@H](c2cc(C)nc(Nc3cc(C)[nH]n3)n2)C1 [Compound 131] | 1.01 to 10

Next, values leading:

Row | IC50 [nM] | SMILES
13 | < 1 | Cc1cc(Nc2cc(C)[nH]n2)nc([C@H]2C[C@H](C(=O)NCc3ccc(-n4cccn4)nc3)C2)c1 [Compound 100]
14 | < 1 | Cc1cc(Nc2cc(C)[nH]n2)nc([C@H]2C[C@H](C(=O)N[C@H](C)c3ccc(-n4cccn4)nc3)C2)c1 [Compound 101]
15 | < 1 | Cc1cc(Nc2cc(C)[nH]n2)nc([C@H]2C[C@H](C(=O)N[C@@H](C)c3ccc(-n4cc(F)cn4)nc3)C2)c1 [Compound 102]
16 | < 1 | Cc1cc(Nc2cc(C)[nH]n2)nc([C@H]2C[C@H](C(=O)N[C@H](C)c3cnc(-n4cc(F)cn4)cn3)C2)c1 [Compound 104]
17 | < 1 | Cc1cc(Nc2cc(C)[nH]n2)nc([C@H]2C[C@H](C(=O)N[C@@H](C)c3ccc(-n4cc(F)cn4)nc3)C2)n1 [Compound 105]
18 | < 1 | Cc1cc(Nc2cc(C)[nH]n2)nc([C@H]2C[C@](C)(C(=O)N[C@@H](C)c3ccc(-n4cc(F)cn4)nc3)C2)n1 [Compound 108, (1R,3S)—N—((S)-1-(6-(4-fluoro-1H-pyrazol-1-yl)pyridin-3-yl)ethyl)-1-methyl-3-(4-methyl-6-((5-methyl-1H-pyrazol-3-yl)amino)pyrimidin-2-yl)cyclobutane-1-carboxamide]
19 | < 1 | Cc1cc(Nc2cc(C)[nH]n2)nc([C@]2(O)C[C@@H](C(=O)N[C@@H](C)c3ccc(-n4cc(F)cn4)nc3)C2)c1 [Compound 109]
20 | < 1 | Cc1cc(Nc2cc(C)[nH]n2)nc([C@H]2C[C@](C)(C(=O)N[C@@H](C)c3cnc(-n4cc(F)cn4)cn3)C2)n1 [Compound 110]
21 | < 1 | Cc1cc(Nc2cc(C)[nH]n2)nc([C@]2(O)C[C@@](C)(C(=O)N[C@@H](C)c3ccc(-n4cc(F)cn4)nc3)C2)c1 [Compound 119]
22 | < 1 | CO[C@]1(C(=O)N[C@@H](C)c2ccc(-n3cc(F)cn3)nc2)C[C@H](c2cc(C)cc(Nc3cc(C)[nH]n3)n2)C1 [Compound 120]
23 | < 1 | CO[C@]1(C(=O)N[C@@H](C)c2ccc(-n3cc(F)cn3)nc2)C[C@H](c2nc(C)cc(Nc3cc(C)[nH]n3)n2)C1 [Compound 121]
24 | < 1 | CO[C@]1(C(=O)N[C@@H](C)c2ccc(-n3cc(F)cn3)nc2)C[C@H](c2cc(C)nc(Nc3cc(C)[nH]n3)n2)C1 [Compound 122]
25 | < 1 | CO[C@]1(C(=O)N[C@@H](C)c2cnc(-n3cc(F)cn3)cn2)C[C@H](c2nc(C)cc(Nc3cc(C)[nH]n3)n2)C1 [Compound 123]
